This is an account of results in patent US11752125B2, “Anti-neuroinflammatory and protective compounds in Achillea fragrantissima” (THE STATE OF ISRAEL MINISTRY OF AGRICULTURE & RURAL …, priority 2013, dated 2023).

In one series the test system is GDNF. Briefly: GDNF transcript levels in primary astrocytes (real-time PCR). It is filed as cell-based, rat. The settings on record: 24 h treatment. The source says: 1. Produce a primary culture of rat brain glial cells according to the method described in “Protective effects of the essential oil of salvia fruticosa and its constituents on astrocytic susceptibility to hydrogen peroxide-induced cell death”. 2009. A. Elmann, S. Mordechay, M. Rindner, O. Larkov, M. Elkabetz, U. Ravid. Journal of agricultural and food chemistry. 57(15):6636-41; 2. Separate astrocytes from other cell types in the culture according to the method described in “Protective effects of the essential oil of salvia fruticosa and its constituents on astrocytic susceptibility to hydrogen peroxide-induced cell death”. 2009. A. Elmann, S. Mordechay, M. Rindner, O. Larkov, M. Elkabetz, U. Ravid. Journal of agricultural and food chemistry. 57(15):6636-41; 3. Plate astrocytes in 6-wells PDL-coated plastic plates at a density of 2×10^6 cells/well, in DMEM/F12 containing 5% FBS, 2 millimolar glutamine, 100 U/ml penicillin, and 100 micrograms/ml streptomycin. 4. Incubate the culture for 24 hr (37° C., 5% CO2); 5. Aspirate medium and add fresh medium to the cells. 6. […]
Astrocytes were treated with achillolide A for 24 h. […] GDNF transcripts were measured using quantitative real time PCR. The results of three technical replicates were normalized to […] and are expressed as relative quantities of GDNF transcripts. […]
On the technique in general: Real-time PCR tracks product formation cycle by cycle.

The next series relates to CREB. In words: H2O2-induced CREB phosphorylation in astrocytes (ELISA). The following applies: astrocytes pretreated 2 h, H2O2 175 μM 30 min; total CREB not affected. It is filed as cell-based, rat. As to the method:
Astrocytes were treated with TTF 2 h before the addition of H2O2. Cells were lysed 40 minutes after the addition of H2O2 in lysis buffer supplied by PathScan sandwich ELISA kit (Cell Signaling TECHNOLOGY) according to the manufacturer's protocol. Protein concentrations in cell lysates were determined by Bradford reagent (Bio-Rad, Hercules, Calif.), and equal amounts of proteins were subjected to ELISA. To measure the amount of total and phosphoSAPK/JNK in cell lysates of astrocytes, ELISA was performed according to the manufacturer's protocol using the PathScan total SAPK/JNK sandwich ELISA kit (Cell Signaling TECHNOLOGY) and the PathScan phospho-SAPK/JNK (Thr183/Tyr185) sandwich ELISA kit (Cell Signaling TECHNOLOGY), respectively. […] The optical density was determined at 450 nm using a microplate reader.
1. […] Determine the optical density at 450 nm using a microplate reader.
Astrocytes were treated with 175 μM of H2O2 for 30 min following preincubation with TTF for 2 h. The levels of phosphorylated and total CREB were measured by ELISA. […]
A general note: An ELISA detects its analyte on a solid surface through an enzyme-linked reagent.

For another series, the system named is primary astrocytes. The following applies: Nones et al., 2012; cited from earlier work.

Take `C=C1CCC2=C(CO)C(=O)O[C@H]2/C=C(\C)[C@H](OC(C)=O)CC1=O` [achillolide A]: the “effect on GDNF transcript levels” value in the series with GDNF was “increases”.
Consider `COc1cc(-c2oc3cc(OC)c(OC)c(O)c3c(=O)c2O)ccc1O` [TTF, 3,5,4′-trihydroxy-6,7,3′-trimethoxyflavone], for which the “inhibition of H2O2-induced phosphorylation of CREB” value in the series on CREB came to 80%.
Turning to `O=c1c(O)c(-c2ccc(O)c(O)c2)oc2cc(O)cc(O)c12` [quercetin, 3,3′,4′,5,7-Pentahydroxyflavone, reference compound], in the series on primary astrocytes, the “nontoxic concentration in primary astrocytes” value is reported as “up to 100 μM”.
